Assays:
[1] = tested on: GALAP; test: Example III: post-emergence foliar-applied weed control in cereal crops, greenhouse; assay type: in vivo, Galium aparine L.; settings: 21 DAA
Experimental: (§1) Seeds of the desired test plant species were planted in Sun Gro MetroMix® 306 planting mixture, which typically has a pH of 6.0 to 6.8 and an organic matter content of about 30 percent, in plastic pots with a surface area of 103.2 square centimeters (cm^2). When required to ensure good germination and healthy plants, a fungicide treatment and/or other chemical or physical treatment was applied. The plants were grown for 7-36 days in a greenhouse with an approximate 14 hour photoperiod which was maintained at about 18° C. during the day and 17° C. during the night. Nutrients and water were added on a regular basis and supplemental lighting was provided with overhead metal halide 1000-Watt lamps as necessary. The plants were employed for testing when they reached the second or third true leaf stage.
(§2) Treatments consisted of the benzyl ester of 4-amino-3-chloro-5-fluoro-6-(4-chloro-2-fluoro-3-methoxy-phenyl)pyridine-2-carboxylic acid (Compound A), formulated as an SC (suspension concentrate), and a second cereal herbicide alone and in combination.
(§3) Measured aliquots of the benzyl ester of 4-amino-3-chloro-5-fluoro-6-(4-chloro-2-fluoro-3-methoxy-phenyl)pyridine-2-carboxylic acid (Compound A) were placed in 25 milliliter (mL) glass vials and diluted in a volume of 1.25% (v/v) Agri-dex crop oil concentrated to obtain stock solutions. Compound requirements are based upon a 12 mL application volume at a rate of 187 liters per hectare (L/ha). Spray solutions of the second cereal herbicide and experimental compound mixtures were prepared by adding the stock solutions to the appropriate amount of dilution solution to form 12 mL spray solution with active ingredients in two- and three-way combinations. Formulated compounds were applied to the plant material with an overhead Mandel track sprayer equipped with an 8002E nozzle calibrated to deliver 187 L/ha over an application area of 0.503 square meters (m^2) at a spray height of 18 inches (46 cm) above average plant canopy. Control plants were sprayed in the same manner with the solvent blank.
(§4) The treated plants and control plants were placed in a greenhouse as described above and watered by sub-irrigation to prevent wash-off of the test compounds. After 20-22 days, the condition of the test plants as compared with that of the control plants was determined visually and scored on a scale of 0 to 100 percent where 0 corresponds to no injury and 100 corresponds to complete kill.
(§5) Colby's equation was used to determine the herbicidal effects expected from the mixtures (Colby, S. R. 1967. Calculation of the synergistic and antagonistic response of herbicide combinations. Weeds 15:20-22.).

[2] = tested on: KCHSC; test: as above; assay type: in vivo, Kochia scoparia (L.) Schrad.; settings: 21 DAA
Experimental: as §1, §2, §3, §4, §5

[3] = tested on: PAPRH; test: as above; assay type: in vivo, Papaver rhoeas L.; settings: 21 DAA
Experimental: as §1, §2, §3, §4, §5

[4] = tested on: SASKR; test: as above; assay type: in vivo, Salsola tragus L.; settings: 21 DAA
Experimental: as §1, §2, §3, §4, §5

[5] = tested on: STEME; test: as above; assay type: in vivo, Stellaria media (L.) Vill.; settings: 21 DAA
Experimental: as §1, §2, §3, §4, §5

[6] = tested on: XANST; test: Example IV: pre-emergence soil-applied weed control, greenhouse; assay type: in vivo, Xanthium strumarium L. (common cocklebur); settings: 32 gae/ha, 29 DAA
Source text: Seeds or nutlets of the desired test plant species were planted in a soil matrix prepared by mixing a loam soil (32 percent silt, 23 percent clay, and 45 percent sand, with a pH of about 6.5 and an organic matter content of about 1.9 percent) and calcareous grit in an 80 to 20 ratio. The soil matrix was contained in plastic pots with a volume of 1 quart and a surface area of 83.6 square centimeters (cm^2).
Treatments consisted of the benzyl ester of 4-amino-3-chloro-5-fluoro-6-(4-chloro-2-fluoro-3-methoxy-phenyl)pyridine-2-carboxylic acid (compound A) formulated as an SC (suspension concentrate) and various herbicidal components alone and in combination. Forms of compound A were applied on an acid equivalent basis.
Other herbicidal components were applied on an active ingredient basis and included very long chain fatty acid (VLCFA) synthesis-inhibiting and fatty acid/lipid synthesis-inhibiting herbicides alachlor (technical grade material), dimethenamid-P formulated as Outlook®, and S-metolachlor formulated as Dual® II Magnum.
Treatment requirements were calculated based upon the rates being tested, the concentration of active ingredient or acid equivalent in the formulation, and a 12 mL application volume at a rate of 187 L/ha.
For treatments comprised of formulated compounds, measured amounts of compounds were placed individually in 25 mL glass vials and diluted in a volume of 1.25% (v/v) Agri-Dex® crop oil concentrate (COC) to obtain 12× stock solutions. […] Application solutions were prepared by adding an appropriate amount of each stock solution (e.g., 1 mL) and diluted to the appropriate final concentrations with the addition of 10 mL of an aqueous mixture of 1.25% (v/v) COC so that the final spray solutions contained 1.25% (v/v) COC.
For treatments comprised of technical compounds, weighed amounts can be placed individually in 25 mL glass vials and dissolved in a volume of 97:3 (v/v) acetone/DMSO to obtain 12× stock solutions. […] Application solutions can be prepared by adding an appropriate amount of each stock solution (e.g., 1 mL) and diluted to the appropriate final concentrations with the addition of 10 mL of an aqueous mixture of 1.5% (v/v) COC so that the final spray solutions contain 1.25% (v/v) COC. […]
For treatments comprised of formulated and technical compounds, weighed amounts of the technical materials were placed individually in 25 mL glass vials and dissolved in a volume of 97:3 (v/v) acetone/DMSO to obtain 12× stock solutions, and measured amounts of the formulated compounds were placed individually in 25 mL glass vials and diluted in a volume of 1.5% (v/v) COC or water to obtain 12× stock solutions. […]

What does the source list for `COc1c(Cl)ccc(-c2nc(C(=O)OCc3ccccc3)c(Cl)c(N)c2F)c1F` [Compound A Benzyl Ester, benzyl ester of 4-amino-3-chloro-5-fluoro-6-(4-chloro-2-fluoro-3-methoxy-phenyl)pyridine-2-carboxylic acid]?
Visual Weed Control GALAP Obs ([1]; 2.5 gai/ha): 55%; Visual Weed Control GALAP Obs ([1]; 5 gai/ha): 66%; Visual Weed Control GALAP Obs ([1]; 10 gai/ha): 77%; Visual Weed Control KCHSC Obs ([2]; 2.5 gai/ha): 20%; Visual Weed Control KCHSC Obs ([2]; 5 gai/ha): 41%; Visual Weed Control KCHSC Obs ([2]; 10 gai/ha): 62%; Visual Weed Control PAPRH Obs ([3]; 2.5 gai/ha): 48%; Visual Weed Control PAPRH Obs ([3]; 5 gai/ha): 28%; Visual Weed Control PAPRH Obs ([3]; 10 gai/ha): 35%; Visual Weed Control SASKR Obs ([4]; 2.5 gai/ha): 15%; Visual Weed Control SASKR Obs ([4]; 5 gai/ha): 50%; Visual Weed Control SASKR Obs ([4]; 10 gai/ha): 67%; Visual Weed Control STEME Obs ([5]; 2.5 gai/ha): 25%; Visual Weed Control STEME Obs ([5]; 5 gai/ha): 25%; Visual Weed Control STEME Obs ([5]; 10 gai/ha): 27%; Visual Weed Control XANST Obs [6]: 5%

From patent US20130310256A1, “HERBICIDAL COMPOSITIONS COMPRISING 4-AMINO-3-CHLORO-5-FLUORO-6-(4-CHLORO-2-FLUORO-3-METHOXYPHENYL) PYRIDINE-2-CARBOXYLIC ACID OR A DERIVATIVE THEREOF AND VLCFA AND LIPID SYNTHESIS INHIBITING HERBICIDES” (DOW AGROSCIENCES LLC, priority 2008, published 2013)
